Measurements as given in US20220356170A1, “SREBP INHIBITOR COMPRISING A THIOPHENE CENTRAL RING” (Capulus Therapeutics, LLC, priority 2019, published 2022).
pIC50: −log10 of the molar value.

Legend:
[1] = Log D, octanol/aqueous buffer partitioning; assay type: physicochemical; details: 1-octanol/aqueous buffer; 1-octanol/buffer
Method: Log D Procedure: The Log D of Compound 1 was evaluated by octanol/aqueous buffer partitioning. 500 μL of organic phase (1-octanol) was added to each well of a 2 mL deep well plate, followed by 500 μL of buffer and 15 μL of test compound in DMSO (0.15 mM). The plate was vortexed for 10 seconds and incubated at room temperature for 1 hr on a plate shaker at 200 rpm. After incubation, the samples were allowed to equilibrate for 20 min and then centrifuged at 4000 rpm for 30 min for complete phase separation. The distribution of test compound in buffer and octanol phase was analyzed by HPLC-UV. Log D=Log (Area of Octanol/Area of Buffer)

[2] = In vivo pharmacokinetics, oral; details: male C57 BL/6 mice
Method: The in vivo pharmacokinetic properties of Compound 1 by both intravenous and oral administration were evaluated in male C57 BL/6 mice. The in vivo pharmacokinetic properties of Compound 2 by both intravenous and oral administration were evaluated in male C57 BL/6 mice for comparison.
Animals were housed in cages with clean bedding. Certified rodent diet was provided. Water was available ad libitum. Environmental controls for the animal room were set to maintain a temperature of 22 to 25° C., humidity of 40-70% RH, and a 12-hour light /12-hour dark cycle. Normal healthy animals certified by the attending veterinarian were selected and acclimatized for minimum three days prior to initiation of study.
Procedure for Blood Withdrawal: Mice were anesthetized using gaseous anesthesia. Blood samples were collected through a capillary, guided in retro-orbital plexus. At each time point, blood samples from 3 mice of each respective group were collected. The blood samples were collected in pre-labeled tubes. 0.2 to 0.3 mL of blood were collected from each mouse. After collection of the blood samples at each time point, the samples were stored on ice prior to centrifugation. Blood samples were centrifuged within 15 minutes to separate plasma. Centrifugations was done at 1540 rcf (5000 rpm) at 4° C. for 10 minutes. The plasma was separated and transferred to pre-labeled micro-centrifuge tubes and promptly frozen at −80±10° C. until bioanalysis was performed. Samples were identified by test item, group, animal number, and collection time point.
To evaluate pharmacokinetic properties of oral delivery, nine male C57 BL/6 mice were administered 10 mg Compound 1/kg animal weight by mouth. The concentration of Compound 1 in the plasma of the animals was evaluated at 0.25, 0.5, 1, 2, 4, 6, 8, and 24 hr by taking blood samples. Compound 2 was similarly administered for comparison.

[3] = system: MIAPACA2; experiment: Cancer cell growth inhibition, Sulforhodamine B; assay type: cell-based; details: Homo sapiens, MIA PaCa-2; MIAPACA2 (pancreas), 72 hr; Non-Responder Cell Lines with IC50 >10 uM or Not Determined
Method: (§1) The ability of select compounds to inhibit cell growth in various cancer cell lines are evaluated. […] The cell lines shown in Table 5 have reduced growth by at least 50% at 10 uM or lower over 72 hr treatment in growth media. The cell lines shown in Table 6 have reduced growth by at least 50% with an IC50 greater than 10 uM.
(§2) Six 10-fold compound dilutions are prepared in DMSO (e.g. 10 mM, 1 mM, 100 uM, 10 uM, 1 uM, and 0.1 uM). Single data points are acquired for each concentration. The final concentration of DMSO is 0.1%. The duration of the treatment is 72 hr. Growth inhibition is measured using Sulforhodamine B in a protein staining assay. Activity of the agents is determined by evaluation the following parameters: IC50, GI50, IC10, TGI, LC50, IC90, and GI90 (where these values can be calculated).

[4] = system: NCIH358M; experiment: Cancer cell growth inhibition, Sulforhodamine B; assay type: cell-based; details: NCI-H358M; NCIH358M (lung), 72 hr; Non-Responder Cell Lines with IC50 >10 uM or Not Determined
Method: as §1, §2

[5] = system: OVCAR4; experiment: Cancer cell growth inhibition, Sulforhodamine B; assay type: cell-based; details: Homo sapiens, OVCAR-4; OVCAR4 (ovary), 72 hr; Non-Responder Cell Lines with IC50 >10 uM or Not Determined
Method: as §1, §2

[6] = system: PANC1005; experiment: Cancer cell growth inhibition, Sulforhodamine B; assay type: cell-based; details: Homo sapiens, Panc1005, 72 h, PANC1005 (pancreas)
Method: as §1, §2

[7] = system: PLCPRF5; experiment: Cancer cell growth inhibition, Sulforhodamine B; assay type: cell-based; details: Homo sapiens, PLC-PRF-5, 72 h, PLCPRF5 (liver)
Method: as §1, §2

[8] = system: SKBR3; experiment: Cancer cell growth inhibition, Sulforhodamine B; assay type: cell-based; details: Homo sapiens, SK-BR-3, 72 h, SKBR3 (breast)
Method: as §1, §2

[9] = system: SKLMS1; experiment: Cancer cell growth inhibition, Sulforhodamine B; assay type: cell-based; details: Homo sapiens, SK-LMS-1; SKLMS1 (uterus), 72 hr; Non-Responder Cell Lines with IC50 >10 uM or Not Determined
Method: as §1, §2

[10] = system: SKMEL28; experiment: Cancer cell growth inhibition, Sulforhodamine B; assay type: cell-based; details: Homo sapiens, SK-MEL-28; SKMEL28 (skin), 72 hr; Non-Responder Cell Lines with IC50 >10 uM or Not Determined
Method: as §1, §2

[11] = system: SKNAS; experiment: Cancer cell growth inhibition, Sulforhodamine B; assay type: cell-based; details: Homo sapiens, SK-N-AS; SKNAS (brain), 72 hr; Non-Responder Cell Lines with IC50 >10 uM or Not Determined
Method: as §1, §2

[12] = system: THP-1; experiment: Cancer cell growth inhibition, Sulforhodamine B; assay type: cell-based; details: Homo sapiens, THP-1, 72 h, THP-1 (hematological)
Method: as §1, §2

[13] = system: U2OS; experiment: Cancer cell growth inhibition, Sulforhodamine B; assay type: cell-based; details: Homo sapiens; U2OS (bone), 72 hr; Non-Responder Cell Lines with IC50 >10 uM or Not Determined
Method: as §1, §2

[14] = system: WSU-NHL; experiment: Cancer cell growth inhibition, Sulforhodamine B; assay type: cell-based; details: Homo sapiens, 72 h, WSU-NHL (hematological)
Method: as §1, §2

[15] = mouse, plasma, oral, dose 10.00 mg/kg (Compound 1), 12.01 mg/kg (Compound 2)
[16] = Non-Responder Cell Lines with IC50 >10 uM or Not Determined

Work on `CC(C)(O)c1cc(-c2csc(-c3ccc(C(=O)N4CCC(O)CC4)cc3Cl)c2)ccn1` [Compound 1, (3-chloro-4-(4-(2-(2-hydroxypropan-2-yl)pyridin-4-yl)thiophen-2-yl)phenyl)(4-hydroxypiperidin-1-yl)methanone] yielded a logD [1] of 3.38, a bioavailability ([2]; mouse, plasma, oral vs intravenous) of 59.7% and an AUC(0-inf) [2, 15] of 76300 ng·h/mL. For the same molecule, the AUC(0-t) [2, 15] was 71200 ng·h/mL, the Cmax [2, 15] was 7840 ng/mL and the Tmax [2, 15] was 0.5 h. The half-life [2, 15] was 6.18 h, the MRT last ([2]; mouse, plasma, oral, dose 10.00 mg/kg (Compound 1), 12.01 mg/kg (Compound 2), read-out: MRT0-last) was 7.6 h and the AUCExtra ([2]; oral, dose 10.00 mg/kg (Compound 1), 12.01 mg/kg (Compound 2)) was 6.77%. For the same molecule, the pIC50 [3] was < 5.00, the pIC50 [4] was < 5.00 and the pIC50 [5] was < 5.00. The pIC50 [6, 16] was < 5.00, the pIC50 ([6]; Responder Cell Lines) was > 5.00 and the pIC50 [7, 16] was < 5.00. The pIC50 ([7]; Responder Cell Lines) was > 5.00, the pIC50 [8, 16] was < 5.00 and the pIC50 ([8]; Responder Cell Lines) was > 5.00. The pIC50 [9] was < 5.00, the pIC50 [10] was < 5.00 and the pIC50 [11] was < 5.00. The pIC50 [12, 16] was < 5.00, the pIC50 ([12]; Responder Cell Lines) was > 5.00 and the pIC50 [13] was < 5.00. For the same molecule, the pIC50 [14, 16] was < 5.00 and the pIC50 ([14]; Responder Cell Lines) was > 5.00.
